In patent US20260231994A1, “TASTE-ENHANCING COMPOSITION, METHOD FOR PRODUCING SAME, FOOD PRODUCT, AND METHOD FOR ENHANCING TASTE OF FOOD PRODUCT” (HOUSE FOODS GROUP INC., priority 2023, published 2026):

Assays:
Type in all cases: in vivo
[1] = Experiment 6 sensory evaluation of cyclic dipeptides, “top sharp saltiness”
Experimental: (§1) An aqueous solution in which the concentration of each of the cyclic dipeptides shown in the table described below is set to be the same as its concentration in the heat-treated coriander prepared in 1.1. described above, as estimated from the ratio of the peak area of the cyclic dipeptides to the peak area of the internal standard (47 μg/g of L-lysine-^13C6 monohydrochloride) (hereinafter referred to as “heat-treated coriander equivalent aqueous solution”) was prepared. An aqueous solution in which the concentration of each of the cyclic dipeptides is set to be the same as its concentration in the heat-treated paprika of Example 203 prepared in 2.1 described above (hereinafter referred to as “heat-treated paprika equivalent aqueous solution”) was also prepared. Cyclic dipeptides prepared by the applicant were used in this experiment. As a cyclic dipeptide comprising Leu/Ile, a mixture comprising equal parts of cyclic dipeptide comprising Leu and cyclic dipeptide comprising Ile was used.
(§2) Common and reduced-sodium curry rouxes were prepared according to the procedures described in (1) and (2) of 1.3. described above.
(§3) Two dispersions of 44 g of the aforesaid reduced-sodium curry roux dispersed in 300 g of hot water were prepared. To one of them was added the heat-treated coriander equivalent solution or heat-treated paprika equivalent aqueous solution of the individual cyclic dipeptides shown in the table described below so as to be in the final concentration of 0.5% (w/w) or 1.0% (w/w), respectively.
(§4) Forty-four grams of the aforesaid common curry roux was dispersed in 300 g of hot water.
(§5) The dispersion of reduced-sodium curry roux dispersed in hot water and the dispersion of common curry roux dispersed in hot water were used as comparative controls, and the strength of the flavor was evaluated by three evaluators on the basis of the following evaluation criteria from the viewpoint of “top sharp saltiness”, “middle fullness (enhanced thickness) and “boosting of last flavor (aftertaste).”
(§6) The average of the evaluated scores was defined as “F” when it was 1.0 or lower, “C” when it was 1.1 or higher and 1.9 or lower, “B” when it was 2.0 or higher and 2.5 or lower, “A” when it was 2.6 or higher and 2.9 or lower, and “AA” when it was 3.0 or higher.
(§7) In the table described below, “ID” refers to the compound ID described above. The items of “coriander 0.5%” and “coriander 1.0%” refer to the addition of the aforesaid heat-treated coriander equivalent aqueous solution of cyclic dipeptide so that the final concentrations may be 0.5% (w/w) and 1.0% (w/w), respectively. The items of “paprika 0.5%” and “paprika 1.0%” refer to the addition of the aforesaid heat-treated paprika equivalent aqueous solution of cyclic dipeptide so that the final concentration may be 0.5% (w/w) and 1.0% (w/w), respectively.

[2] = Experiment 6 sensory evaluation of cyclic dipeptides, “boosting of last flavor (aftertaste)”
Experimental: as §1, §2, §3, §4, §5, §6, §7

[3] = Experiment 6 sensory evaluation of cyclic dipeptides, “middle fullness (enhanced thickness)”
Experimental: as §1, §2, §3, §4, §5, §6, §7

[4] = Additive amount paprika 0.5% (heat-treated paprika equivalent aqueous solution, final 0.5% (w/w)), reduced-sodium curry roux
[5] = Additive amount paprika 0.5%, reduced-sodium curry roux
[6] = heat-treated paprika equivalent aqueous solution of cyclic dipeptide, final 1.0% (w/w) in reduced-sodium curry roux dispersion
[7] = heat-treated paprika equivalent aqueous solution of cyclic dipeptide, final 1.0% (w/w) in reduced-sodium curry roux dispersion, 3 evaluators
[8] = Additive amount coriander 0.5% (heat-treated coriander equivalent aqueous solution, final 0.5% (w/w)), reduced-sodium curry roux
[9] = Additive amount coriander 0.5%, reduced-sodium curry roux
[10] = heat-treated coriander equivalent aqueous solution of cyclic dipeptide, final 1.0% (w/w) in reduced-sodium curry roux dispersion
[11] = heat-treated coriander equivalent aqueous solution of cyclic dipeptide, final 1.0% (w/w) in reduced-sodium curry roux dispersion, 3 evaluators

Substance | Top sharp saltiness Average [1, 4] | Top sharp saltiness Evaluation [1, 5] | Top sharp saltiness Evaluation [1, 6] | Top sharp saltiness Average [1, 7] | Bosting of last flavor Average [2, 5] | Bosting of last flavor Evaluation [2, 5] | Bosting of last flavor Evaluation [2, 6] | Bosting of last flavor Average [2, 7] | Top sharp saltiness Average [1, 8] | Top sharp saltiness Evaluation [1, 9] | Top sharp saltiness Evaluation [1, 10] | Top sharp saltiness Average [1, 11] | Bosting of last flavor Average [2, 9] | Bosting of last flavor Evaluation [2, 9] | Bosting of last flavor Evaluation [2, 10] | Bosting of last flavor Average [2, 11] | Middle fullness Average [3, 9] | Middle fullness Evaluation [3, 9] | Middle fullness Evaluation [3, 10] | Middle fullness Average [3, 11] | other results
cyclic (Gly-Phe) [Coriander ID 28] | 2.7 points | A (“A” when it was 2.6 or higher and 2.9 or lower) | B (“B” when it was 2.0 or higher and 2.5 or lower) | 2.3 points | 3.2 points | AA (“AA” when it was 3.0 or higher) | B (“B” when it was 2.0 or higher and 2.5 or lower) | 2.5 points | – | – | – | – | – | – | – | – | – | – | – | – | Middle fullness Average [3, 5]: 3.2 points; Middle fullness Evaluation [3, 5]: AA (“AA” when it was 3.0 or higher); Middle fullness Evaluation [3, 6]: B (“B” when it was 2.0 or higher and 2.5 or lower); Middle fullness Average [3, 7]: 2.5 points
cyclic (Gly-Ser) [Coriander ID 5] | – | – | – | – | – | – | – | – | 1.7 points | C (“C” when it was 1.1 or higher and 1.9 or lower) | C (“C” when it was 1.1 or higher and 1.9 or lower) | 1.8 points | 2.2 points | B (“B” when it was 2.0 or higher and 2.5 or lower) | B (“B” when it was 2.0 or higher and 2.5 or lower) | 2.3 points | 2.0 points | B (“B” when it was 2.0 or higher and 2.5 or lower) | B (“B” when it was 2.0 or higher and 2.5 or lower) | 2.3 points | –
cyclic (Gly-His) [Coriander ID 4] | – | – | – | – | – | – | – | – | 2.8 points | A (“A” when it was 2.6 or higher and 2.9 or lower) | B (“B” when it was 2.0 or higher and 2.5 or lower) | 2.3 points | 3.5 points | AA (“AA” when it was 3.0 or higher) | B (“B” when it was 2.0 or higher and 2.5 or lower) | 2.5 points | 3.3 points | AA (“AA” when it was 3.0 or higher) | A (“A” when it was 2.6 or higher and 2.9 or lower) | 2.7 points | –
cyclic (Phe-Ser) | 2.3 points | B (“B” when it was 2.0 or higher and 2.5 or lower) | B (“B” when it was 2.0 or higher and 2.5 or lower) | 2.2 points | 3.0 points | AA (“AA” when it was 3.0 or higher) | B (“B” when it was 2.0 or higher and 2.5 or lower) | 2.3 points | – | – | – | – | – | – | – | – | – | – | – | – | Middle fullness Average [3, 5]: 2.8 points; Middle fullness Evaluation [3, 5]: A (“A” when it was 2.6 or higher and 2.9 or lower); Middle fullness Evaluation [3, 6]: B (“B” when it was 2.0 or higher and 2.5 or lower); Middle fullness Average [3, 7]: 2.3 points
cyclic (Glu-Phe) [Coriander ID 46] | – | – | – | – | – | – | – | – | 3.0 points | AA (“AA” when it was 3.0 or higher) | B (“B” when it was 2.0 or higher and 2.5 or lower) | 2.5 points | 2.8 points | A (“A” when it was 2.6 or higher and 2.9 or lower) | B (“B” when it was 2.0 or higher and 2.5 or lower) | 2.5 points | 2.8 points | A (“A” when it was 2.6 or higher and 2.9 or lower) | A (“A” when it was 2.6 or higher and 2.9 or lower) | 2.7 points | –
cyclic (Phe-Phe) [Coriander ID 43] | – | – | – | – | – | – | – | – | 2.3 points | B (“B” when it was 2.0 or higher and 2.5 or lower) | A (“A” when it was 2.6 or higher and 2.9 or lower) | 2.8 points | 3.2 points | AA (“AA” when it was 3.0 or higher) | A (“A” when it was 2.6 or higher and 2.9 or lower) | 2.7 points | 2.3 points | B (“B” when it was 2.0 or higher and 2.5 or lower) | A (“A” when it was 2.6 or higher and 2.9 or lower) | 2.7 points | –
cyclic (Gly-Gly) [Coriander ID 54] | – | – | – | – | – | – | – | – | 2.2 points | B (“B” when it was 2.0 or higher and 2.5 or lower) | A (“A” when it was 2.6 or higher and 2.9 or lower) | 2.8 points | 3.0 points | AA (“AA” when it was 3.0 or higher) | B (“B” when it was 2.0 or higher and 2.5 or lower) | 2.3 points | 2.5 points | B (“B” when it was 2.0 or higher and 2.5 or lower) | A (“A” when it was 2.6 or higher and 2.9 or lower) | 2.7 points | –
cyclic (Pro-Tyr) [Coriander ID 31] | – | – | – | – | – | – | – | – | 2.5 points | B (“B” when it was 2.0 or higher and 2.5 or lower) | B (“B” when it was 2.0 or higher and 2.5 or lower) | 2.0 points | 2.5 points | B (“B” when it was 2.0 or higher and 2.5 or lower) | B (“B” when it was 2.0 or higher and 2.5 or lower) | 2.0 points | 2.5 points | B (“B” when it was 2.0 or higher and 2.5 or lower) | B (“B” when it was 2.0 or higher and 2.5 or lower) | 2.0 points | –
cyclic (Thr-Leu/Ile) [Coriander ID 3] | 2.0 points | B (“B” when it was 2.0 or higher and 2.5 or lower) | C (“C” when it was 1.1 or higher and 1.9 or lower) | 1.7 points | 3.0 points | AA (“AA” when it was 3.0 or higher) | C (“C” when it was 1.1 or higher and 1.9 or lower) | 1.7 points | – | – | – | – | – | – | – | – | – | – | – | – | Middle fullness Average [3, 5]: 2.5 points; Middle fullness Evaluation [3, 5]: B (“B” when it was 2.0 or higher and 2.5 or lower); Middle fullness Evaluation [3, 6]: B (“B” when it was 2.0 or higher and 2.5 or lower); Middle fullness Average [3, 7]: 2.2 points
